Data on 21 compounds can be found in US9920074B2 (ACEA BIOSCIENCES INC., priority 2013, dated 2018).

Assay [1] has as its system Stat5 phosphorylation in NK-92 cells. Kind of assay: Western blotting assay for Stat5. The format is cell-based. Particulars: NK92, 1 hour, IL-2 stimulation, read-out: Stat5 inhibition. The procedure: (§1) All cell lines were obtained from the American Type Culture Collection and were maintained at 37° C. with 5% CO2. Ramos cell line was maintained in media supplemented with 10% fetal bovine serum, penicillin (100 units/mL) and streptomycin (100 μg/mL). NK-92 cell line was maintained in media supplemented with 10% fetal bovine serum and 10% horse serum, penicillin (100 units/mL) and streptomycin (100 μg/mL), IL-2 10 ng/mL. Goat F(ab′)2 Anti-Human IgM-UNLB was obtained from SouthernBiotech. IL-2 was obtained from Peprotech.
NK-92 cells were treated with compounds at the dosed indicated for 1 hour in incubator, followed by the IL-2 stimulation for 15 minutes. Cells were then collected and lysed to prepare the cellular extraction. Western blots were performed on cell lysate using Phospho-Jak3, Jak3, Phospho-Stat5, Stat5 antibodies (Cell Signaling Technology). The intensity of blotting band was acquired using Image Lab (Bio-Rad) software, and the IC50 of target was generated with GraphPad Prism.
For orientation: Immunoblotting shows a protein as a band on a membrane.

Assay [2] deals with T1, Btk (Tyr223) phosphorylation in Ramos cells (Homo sapiens, UniProt Q06187).
T1 construct: endogenous in cells; host or cells: Ramos cells (ATCC)
Kind of assay: Western blotting assay for Btk (Example 73). To be noted: 45 min, 6 μg/mL anti-IgM, read-out: Btk Inhibition. The class given is cell-based. The procedure: as §1
Ramos cells were treated with compounds at indicated doses for 45 min at room temperature, followed by stimulation of 6 μg/mL of anti-IgM for 30 min, and then lysed. Western blots were performed on the cell lysate using Phospho-Btk (Tyr223), Phospho-Btk (Tyr551), Btk, Phospho-PLCγ2 (Tyr1217), PLCγ2, Phospho-p44/42 MAPK (Erk1/2) (Thr202/Tyr204) and p44/42 MAPK (Erk1/2) antibodies (Cell Signaling Technology). The density of blotting band was acquired using ImageJ software, and the IC50 of Btk (Tyr223) phosphorylation was fitted using a non-linear regression model by GraphPad Prism.

The structures appear in SMILES notation. Where only a bound is given, the exact number is not on record here.

T1 sequence (Q06187 whole entry): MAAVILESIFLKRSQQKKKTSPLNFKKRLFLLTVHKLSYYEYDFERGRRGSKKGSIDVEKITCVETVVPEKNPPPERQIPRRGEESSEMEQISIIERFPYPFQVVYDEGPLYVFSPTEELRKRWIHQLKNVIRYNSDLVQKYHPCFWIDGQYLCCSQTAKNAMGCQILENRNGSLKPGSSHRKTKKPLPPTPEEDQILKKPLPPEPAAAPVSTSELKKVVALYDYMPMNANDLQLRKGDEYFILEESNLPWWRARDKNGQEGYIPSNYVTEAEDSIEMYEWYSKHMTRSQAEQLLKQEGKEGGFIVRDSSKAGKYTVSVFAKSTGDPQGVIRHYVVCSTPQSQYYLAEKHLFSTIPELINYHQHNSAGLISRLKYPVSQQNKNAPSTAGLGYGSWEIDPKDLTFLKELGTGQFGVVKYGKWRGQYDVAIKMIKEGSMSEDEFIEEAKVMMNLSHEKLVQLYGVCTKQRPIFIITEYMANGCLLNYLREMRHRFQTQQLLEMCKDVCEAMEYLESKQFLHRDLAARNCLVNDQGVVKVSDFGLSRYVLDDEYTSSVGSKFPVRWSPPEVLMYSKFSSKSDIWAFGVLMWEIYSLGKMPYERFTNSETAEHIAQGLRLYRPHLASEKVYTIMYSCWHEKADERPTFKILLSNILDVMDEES

As for `C=CC(=O)Nc1cccc(Oc2nc(Nc3ccc(N(C)CCOC)cc3)ncc2OC)c1` [Compound I-35a, N-(3-(5-methoxy-2-(4-((2-methoxyethyl)(methyl)amino)phenylamino)pyrimidin-4-yloxy)phenyl)acrylamide], the IC50 is 0.2 to 0.4 µM in assay [1] and no more than 0.01 µM in assay [2].
For `C=CC(=O)Nc1cccc(Oc2nc(Nc3ccc4c(c3)CCN4CCOC)nc3[nH]ccc23)c1` [Compound I-36a, N-(3-(2-(1-(2-methoxyethyl)indolin-5-ylamino)-7H-pyrrolo[2,3-d]pyrimidin-4-yloxy)phenyl)acrylamide], the IC50 lay in the range of 0.2 to 0.4 µM in assay [1] and 0.01 to 0.1 µM in assay [2].
As to `C=CC(=O)Nc1cccc(Oc2nc(Nc3cc(F)c(OCCOC)c(F)c3)nc3[nH]ccc23)c1` [Compound I-37a, N-(3-(2-(3,5-difluoro-4-(2-methoxyethoxy)phenylamino)-7H-pyrrolo[2,3-d]pyrimidin-4-yloxy)phenyl)acrylamide], the IC50 in assay [1] was no less than 0.4 µM; in assay [2] it was 0.01 to 0.1 µM.
In the case of `C=CC(=O)Nc1cccc(Oc2nc(Nc3ccc(N(CCC)CCOC)cc3)ncc2OC)c1` [Compound I-38a, N-(3-(5-methoxy-2-(4-((2-methoxyethyl)(propyl)amino)phenylamino)pyrimidin-4-yloxy)phenyl)acrylamide], the IC50 in assay [1] was no less than 0.4 µM; in assay [2], 0.01 to 0.1 µM.
For `C=CCN(CCOC)c1ccc(Nc2ncc(OC)c(Oc3cccc(NC(=O)C=C)c3)n2)cc1` [Compound I-39a], in that order: no less than 0.4 µM and 0.01 to 0.1 µM.
As to `C=CC(=O)Nc1cccc(Oc2nc(Nc3ccc(N[C@H]4CCN(CCOC)C4)cc3)nc3[nH]ccc23)c1` [Compound I-40a, (S)—N-(3-(2-(4-(1-(2-methoxyethyl)pyrrolidin-3-ylamino)phenylamino)-7H-pyrrolo[2,3-d]pyrimidin-4-yloxy)phenyl)acrylamide], the IC50 was no less than 0.4 µM in assay [1] and no more than 0.01 µM in assay [2].
With `C=CC(=O)Nc1cccc(Oc2nc(Nc3ccc(N(C)CCOC)cc3)nc3[nH]ccc23)c1` [Compound I-41a, N-(3-(2-(4-((2-methoxyethyl)(methyl)amino)phenylamino)-7H-pyrrolo[2,3-d]pyrimidin-4-yloxy)phenyl)acrylamide], the IC50 in assay [1] lay in the range of 0.2 to 0.4 µM; in assay [2] it was 0.01 to 0.1 µM.
Turning to `C=CC(=O)Nc1cccc(Oc2nc(Nc3ccc(N(C)[C@H]4CCN(CCOC)C4)cc3)ncc2OC)c1` [Compound I-42a, (S)—N-(3-(5-methoxy-2-(4-((1-(2-methoxyethyl)pyrrolidin-3-yl)(methyl)amino)phenylamino)pyrimidin-4-yloxy)phenyl)acrylamide], the IC50 was no less than 0.4 µM in assay [1] and no more than 0.01 µM in assay [2].
For the compound `C=CC(=O)Nc1cccc(Oc2nc(Nc3ccc4c(ccn4CCF)c3)ncc2OC)c1` [Compound I-43a, N-(3-(2-(1-(2-fluoroethyl)-1H-indol-5-ylamino)-5-methoxypyrimidin-4-yloxy)phenyl)acrylamide], the figures for the IC50 in assay [1] and in assay [2] were 0.2 to 0.4 µM and no more than 0.01 µM, respectively.
On to `C=CC(=O)Nc1cccc(Oc2nc(Nc3ccc(OCCS(C)(=O)=O)cc3)ncc2OC)c1` [Compound I-44a, N-(3-(5-methoxy-2-(4-(2-(methylsulfonyl)ethoxy)phenylamino)pyrimidin-4-yloxy)phenyl)acrylamide], for which the IC50 was 0.2 to 0.4 µM in assay [1] and no more than 0.01 µM in assay [2].
In the case of `C=CC(=O)Nc1cccc(Oc2nc(Nc3ccc4c(ccn4CCOC)c3)ncc2OC)c1` [Compound I-45a, N-(3-(5-methoxy-2-(1-(2-methoxyethyl)-1H-indol-5-ylamino)pyrimidin-4-yloxy)phenyl)acrylamide], the figures for the IC50 in assay [1] and in assay [2] were 0.2 to 0.4 µM and 0.01 to 0.1 µM, respectively.
On to `C=CC(=O)Nc1cccc(Oc2nc(Nc3ccc(N(C)CCOC)nc3)nc3[nH]ccc23)c1` [Compound I-46a, N-(3-(2-(6-((2-methoxyethyl)(methyl)amino)pyridin-3-ylamino)-7H-pyrrolo[2,3-d]pyrimidin-4-yloxy)phenyl)acrylamide], for which the IC50 in assay [1] is no less than 0.4 µM; in assay [2], 0.01 to 0.1 µM.
With `C=CC(=O)Nc1cccc(Oc2nc(Nc3ccc(N4CCN(CCOC)CC4)cc3)nc3[nH]ccc23)c1` [Compound I-47a, N-(3-(2-(4-(4-(2-methoxyethyl)piperazin-1-yl)phenylamino)-7H-pyrrolo[2,3-d]pyrimidin-4-yloxy)phenyl)acrylamide], the IC50 in assay [1] is 0.2 to 0.4 µM; in assay [2], no more than 0.01 µM.
As to `C=CC(=O)Nc1cccc(Oc2nc(Nc3ccc(N4CCN(CCOC)CC4)c(F)c3)nc3[nH]ccc23)c1` [Compound I-48a, N-(3-(2-(3-fluoro-4-(4-(2-methoxyethyl)piperazin-1-yl)phenylamino)-7H-pyrrolo[2,3-d]pyrimidin-4-yloxy)phenyl)acrylamide], the IC50 in assay [1] is 0.2 to 0.4 µM; in assay [2] it was no more than 0.01 µM.
The matching figures for `C=CC(=O)Nc1cccc(Oc2nc(Nc3ccc(N(C)[C@H]4CCN(CCOC)C4)cc3)nc3[nH]ccc23)c1` [Compound I-49a, (S)—N-(3-(2-(4-((1-(2-methoxyethyl)pyrrolidin-3-yl)(methyl)amino)phenylamino)-7H-pyrrolo[2,3-d]pyrimidin-4-yloxy)phenyl)acrylamide]: no less than 0.4 µM and no more than 0.01 µM.
The matching figures for `C=CC(=O)Nc1cccc(Oc2nc(Nc3ccc4c(c3)CN(CCOC)C4)ncc2OC)c1` [Compound I-50a, N-(3-(5-methoxy-2-(2-(2-methoxyethyl)isoindolin-5-ylamino)pyrimidin-4-yloxy)phenyl)acrylamide]: no less than 0.4 µM and 0.01 to 0.1 µM.
For the compound `C=CC(=O)Nc1cccc(Oc2nc(Nc3ccc(N(CC)[C@H]4CCN(CCOC)C4)cc3)ncc2OC)c1` [Compound I-51a, (S)—N-(3-(2-(4-(ethyl(1-(2-methoxyethyl)pyrrolidin-3-yl)amino)phenylamino)-5-methoxypyrimidin-4-yloxy)phenyl)acrylamide], the results for the IC50 in assay [1] and in assay [2] were no less than 0.4 µM and no more than 0.01 µM, respectively.
For `C=CC(=O)Nc1cccc(Oc2nc(Nc3ccc4c(c3)CC(=O)N4CCOC)ncc2OC)c1` [Compound I-52a, N-(3-(5-methoxy-2-(1-(2-methoxyethyl)-2-oxoindolin-5-ylamino)pyrimidin-4-yloxy)phenyl)acrylamide], the IC50 in assay [1] was no less than 0.4 µM; in assay [2], no more than 0.01 µM.
For `C=CC(=O)Nc1cccc(Oc2nc(Nc3ccc(N(C4CC4)[C@H]4CCN(CCOC)C4)cc3)ncc2OC)c1` [Compound I-53a, (S)—N-(3-(2-(4-(cyclopropyl(1-(2-methoxyethyl)pyrrolidin-3-yl)amino)phenylamino)-5-methoxypyrimidin-4-yloxy)phenyl)acrylamide], in that order: no less than 0.4 µM and no more than 0.01 µM.
Consider `C=CC(=O)Nc1cccc(Oc2nc(Nc3ccc(N4CCN(CCS(C)(=O)=O)CC4)cc3)ncc2OC)c1` [Compound I-54a, N-(3-(5-methoxy-2-(4-(4-(2-(methylsulfonyl)ethyl)piperazin-1-yl)phenylamino)pyrimidin-4-yloxy)phenyl)acrylamide], for which the IC50 was no less than 0.4 µM in assay [1] and no more than 0.01 µM in assay [2].
Turning to `C=CC(=O)Nc1cccc(Oc2nc(Nc3ccc4c(c3)CCN4C(C)=O)ncc2OC)c1` [Compound I-56a, N-(3-(2-(1-acetylindolin-5-ylamino)-5-methoxypyrimidin-4-yloxy)phenyl)acrylamide], the IC50 is 0.2 to 0.4 µM in assay [1] and no more than 0.01 µM in assay [2].
